Assay results from ChEMBL document CHEMBL1152996, “Tetracycline resistance gene tet(W) in the pathogenic bacterium Clostridium difficile” (2008).
Converted amounts (≈) assume the structure as drawn.

Legend:
Format in all cases: functional
[1] = test system: Clostridioides difficile; test: Antibacterial activity against Clostridium difficile CD37 harboring tet(M) gene from Clostridium difficile CD5
[2] = test system: Clostridioides difficile; test: Antibacterial activity against Clostridium difficile clinical isolate expressing tet(M) gene by Etest
[3] = test system: Clostridioides difficile; test: Antibacterial activity against Clostridium difficile CD5 expressing tet(W) gene

Question: How did the MIC [1] turn out when `CN(C)[C@@H]1C(O)=C(C(N)=O)C(=O)[C@@]2(O)C(O)=C3C(=O)c4c(O)cccc4[C@@](C)(O)[C@H]3C[C@@H]12` [TETRACYCLINE] was run?
Answer: 8 mg/L (≈ 18 µM)

Question: And the MIC [2]?
Answer: ≥ 8 mg/L

Question: What about the MIC [3] of the same compound?
Answer: 8 mg/L (≈ 18 µM)
